What was measured:
[1] = test system: alpha 2 adrenergic receptor; assay: Simultaneous MS binding assay, alpha 2 adrenergic receptor in rat cortex; conditions: multiplexed with prazosine, FIG. 3A
Protocol: (§1) FIG. 3A is a graph showing a simultaneous binding experiment with alpha1 and alpha 2 beta-adrenoceptors. The target molecules are comprised in rat cortex, which contains both alpha 1 and alpha 2 beta adrenoceptors. The test compound is WB4101 and the ligands are prazosine and RX821002.
(§2) This example used target molecule comprising both alpha 1 and alpha 2 beta adeno receptors incubated with WB4101 (test compound) in the presence prazosine (ligand, or “marker” for alpha 1) and RX821002 (ligand, or “marker” for alpha 2) as shown in FIG. 3A. In FIG. 3B, yohimbine (test compound) was tested in the presence of in the presence prazosine (marker for alpha 1) and RX821002 (marker for alpha 2). The signals are indicated ns for non-specific.
(§3) Rat cortexes from Wistar male rats were harvested and transferred to 50 mM Tris-HCl (pH, 7.4) and homogenized by a polyton. […] The pellet was finally resuspended in a smaller volume of lyses buffer and the final protein concentration was determined according to the Bradford method using bovine serum albumin as a standard. […]
(§4) The filters were dried for one hour at 50° C. and cooled to room temperature before elution of ligands using a acetonitrile (contained 100 μM of antipyrine as an internal standard) via a vacuum manifold. Relative quantification of ligand in each sample was performed by UHPLC-MS-MS, the ratio area of ligand and internal standard was used. […]

[2] = test system: alpha 1 adrenergic receptor; assay: Simultaneous MS binding assay, alpha 1 adrenergic receptor in rat cortex; conditions: multiplexed with RX821002, FIG. 3A
Protocol: as §1, §2, §3, §4

[3] = target: sodium channel (Na+) site 2 receptor; assay: MS binding assay of sodium channel, batrachotoxin as ligand, UHPLC-MS/MS; conditions: rat cortex membrane 200 μg/well, 60 minutes at 37° C.; second value column of Table 4 (SNR 8), taken as MS binding
sodium channels = assay: Radioligand binding assay of sodium (Na) channel; conditions: rat cortex sodium channels; first value column of Table 4 (SNR 6), taken as radioligand binding

Molecule: COC1(C2=NCCN2)COc2ccccc2O1 (stereo not shown) [RX821002]
- specific binding to alpha 2 adrenergic receptor [1]: shown specifically to bind

Molecule: COc1cc2nc(N3CCN(C(=O)c4ccco4)CC3)nc(N)c2cc1OC [prazosine]
- specific binding to alpha 1 adrenergic receptor [2]: shown specifically to bind

Molecule: Batrachotoxin
- EC50 [3]: 143 nM
- Kd (sodium channels): 91 nM

From patent publication US20220252611A1 (priority 2019, published 2022)
